In the supplement of paper PMC11208160:

Experiment: recombinant UMI read abundance after kanamycin selection (control-corrected) (log10(CPM+1)); higher = more efficient recombination; extreme values may be limits of the assay; sequences stand for … in AGTGCAGAGAAAATCGGCCAGTTTTCTCTGCCTGCAGTCCGCATGCCGTGGGACCCCTTGGGTTCTAACCTGTTGCCTAGATTTATGCAGCGGACTGCCTTTCTCCCAAAGTGATAAACCGG…AGGTTGGTTTCACT; site = the 11-nt donor
Summary of the method: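 In a pooled Escherichia coli screen for the IS621 bridge recombinase, donor and donor-binding-loop pairs were each placed with a 12-nt UMI on a plasmid bearing a promoterless kanamycin gene. This library was co-electroporated with a target plasmid encoding a fixed target and T7-inducible recombinase, and cells were plated either on IPTG (0.07 mM) plus kanamycin or without selection, in two replicates each. Recombinant UMIs were PCR-amplified across the donor–target junction and sequenced, and counts were converted to CPM, averaged over replicates, scaled by control-derived factors and reported as log10(CPM+1).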

Row | Sequence | recombinant UMI read abundance (log10)
1 | CTCGAAACATGGACCGGTTTTCCCGGTAATCCGTATTTGCA (site CTAGAAACTTG) | 0
2 | CTCGAAACATGGACCGGTTTTCCCGGTAATCCGTATTTGCA (site CTCGAAACTTG) | 2.34
3 | CTCGAAACATGGACCGGTTTTCCCGGTAATCCGTATTTGCA (site CTGGAAACTTG) | 0
4 | CTCGAAACATGGACCGGTTTTCCCGGTAATCCGTATTTGCA (site CTTGAAACTTG) | 0
5 | CTCGAACCATGGACCGGTTTTCCCGGTAATCCGTATTTGAC (site CTCGAACCTGT) | 0
6 | CTCGAATCATGGACCGGTTTTCCCGGTAATCCGTATTTGAA (site CTCGAATCTTT) | 1.86
7 | CTCGAGTCATGGACCGGTTTTCCCGGTAATCCGTATTTGTG (site CTCGAGTCTCA) | 1.87
8 | CTCGATACATGGACCGGTTTTCCCGGTAATCCGTATTTGCT (site CTCGATACTAG) | 2.37
9 | CTCGCTACATGGACCGGTTTTCCCGGTAATCCGTATTTGAT (site CTCGCTACTAT) | 1.7
10 | CTCGGATCATGGACCGGTTTTCCCGGTAATCCGTATTTGGA (site CTCGGATCTTC) | 1.56
11 | CTCGGGCCATGGACCGGTTTTCCCGGTAATCCGTATTTGAG (site CTCGGGCCTCT) | 0
12 | CTCGGTCCATGGACCGGTTTTCCCGGTAATCCGTATTTGCA (site CACGGTCCTTG) | 0.779
13 | CTCGGTCCATGGACCGGTTTTCCCGGTAATCCGTATTTGCA (site CCCGGTCCTTG) | 1.6
14 | CTCGGTCCATGGACCGGTTTTCCCGGTAATCCGTATTTGCA (site CGCGGTCCTTG) | 0.00731
15 | CTCGGTCCATGGACCGGTTTTCCCGGTAATCCGTATTTGCA (site CTCGGTCCTTG) | 0.517
16 | CTCGTCGCATGGACCGGTTTTCCCGGTAATCCGTATTTGGG (site CTCGTCGCTCC) | 0.0128
17 | CTCTACACATGGACCGGTTTTCCCGGTAATCCGTATTTGCT (site ATCTACACTAG) | 0.294
18 | CTCTACACATGGACCGGTTTTCCCGGTAATCCGTATTTGCT (site CACTACACTAG) | 1.63
19 | CTCTACACATGGACCGGTTTTCCCGGTAATCCGTATTTGCT (site CCCTACACTAG) | 2.09
20 | CTCTACACATGGACCGGTTTTCCCGGTAATCCGTATTTGCT (site CGCTACACTAG) | 0.891
21 | CTCTACACATGGACCGGTTTTCCCGGTAATCCGTATTTGCT (site CTATACACTAG) | 0.775
22 | CTCTACACATGGACCGGTTTTCCCGGTAATCCGTATTTGCT (site CTCAACACTAG) | 0
23 | CTCTACACATGGACCGGTTTTCCCGGTAATCCGTATTTGCT (site CTCCACACTAG) | 2.02
24 | CTCTACACATGGACCGGTTTTCCCGGTAATCCGTATTTGCT (site CTCGACACTAG) | 0.288
25 | CTCTACACATGGACCGGTTTTCCCGGTAATCCGTATTTGCT (site CTCTAAACTAG) | 0

Row | Sequence | recombinant UMI read abundance (log10)
26 | CTCTACACATGGACCGGTTTTCCCGGTAATCCGTATTTGCT (site CTCTACACTAA) | 0.362
27 | CTCTACACATGGACCGGTTTTCCCGGTAATCCGTATTTGCT (site CTCTACACTAC) | 0.0172
28 | CTCTACACATGGACCGGTTTTCCCGGTAATCCGTATTTGCT (site CTCTACACTAG) | 2.41
29 | CTCTACACATGGACCGGTTTTCCCGGTAATCCGTATTTGCT (site CTCTACACTAT) | 0.916
30 | CTCTACACATGGACCGGTTTTCCCGGTAATCCGTATTTGCT (site CTCTACACTCG) | 0.238
31 | CTCTACACATGGACCGGTTTTCCCGGTAATCCGTATTTGCT (site CTCTACACTGG) | 1.37
32 | CTCTACACATGGACCGGTTTTCCCGGTAATCCGTATTTGCT (site CTCTACACTTG) | 1.15
33 | CTCTACACATGGACCGGTTTTCCCGGTAATCCGTATTTGCT (site CTCTACCCTAG) | 0
34 | CTCTACACATGGACCGGTTTTCCCGGTAATCCGTATTTGCT (site CTCTACGCTAG) | 0.84
35 | CTCTACACATGGACCGGTTTTCCCGGTAATCCGTATTTGCT (site CTCTACTCTAG) | 0.78
36 | CTCTACACATGGACCGGTTTTCCCGGTAATCCGTATTTGCT (site CTCTAGACTAG) | 0.0131
37 | CTCTACACATGGACCGGTTTTCCCGGTAATCCGTATTTGCT (site CTCTATACTAG) | 0.00765
38 | CTCTACACATGGACCGGTTTTCCCGGTAATCCGTATTTGCT (site CTCTCCACTAG) | 0
39 | CTCTACACATGGACCGGTTTTCCCGGTAATCCGTATTTGCT (site CTCTGCACTAG) | 0.00734
40 | CTCTACACATGGACCGGTTTTCCCGGTAATCCGTATTTGCT (site CTCTTCACTAG) | 0.548
41 | CTCTACACATGGACCGGTTTTCCCGGTAATCCGTATTTGCT (site CTGTACACTAG) | 0.0999
42 | CTCTACACATGGACCGGTTTTCCCGGTAATCCGTATTTGCT (site CTTTACACTAG) | 0.644
43 | CTCTACACATGGACCGGTTTTCCCGGTAATCCGTATTTGCT (site GTCTACACTAG) | 0.232
44 | CTCTACACATGGACCGGTTTTCCCGGTAATCCGTATTTGCT (site TTCTACACTAG) | 0.107
45 | CTCTACACATGGACCGGTTTTCCCGGTAATCCGTATTTGTT (site CTCTACACTAA) | 0.93
46 | CTCTACACATGGACCGGTTTTCCCGGTAATCCGTATTTGTT (site CTCTACACTAC) | 0.0026
47 | CTCTACACATGGACCGGTTTTCCCGGTAATCCGTATTTGTT (site CTCTACACTAG) | 1.45
48 | CTCTACACATGGACCGGTTTTCCCGGTAATCCGTATTTGTT (site CTCTACACTAT) | 0.616
49 | CTCTACTCATGGACCGGTTTTCCCGGTAATCCGTATTTGCT (site CTCTACACTAG) | 0.869
50 | CTCTACTCATGGACCGGTTTTCCCGGTAATCCGTATTTGCT (site CTCTACCCTAG) | 1.17

Row | Sequence | recombinant UMI read abundance (log10)
51 | CTCTACTCATGGACCGGTTTTCCCGGTAATCCGTATTTGCT (site CTCTACGCTAG) | 0.00255
52 | CTCTACTCATGGACCGGTTTTCCCGGTAATCCGTATTTGCT (site CTCTACTCTAG) | 2.5
53 | CTCTAGCCATGGACCGGTTTTCCCGGTAATCCGTATTTGCC (site CACTAGCCTGG) | 0.69
54 | CTCTAGCCATGGACCGGTTTTCCCGGTAATCCGTATTTGCC (site CCCTAGCCTGG) | 0
55 | CTCTAGCCATGGACCGGTTTTCCCGGTAATCCGTATTTGCC (site CGCTAGCCTGG) | 0
56 | CTCTAGCCATGGACCGGTTTTCCCGGTAATCCGTATTTGCC (site CTCTAGCCTGG) | 0
57 | CTCTATACATGGACCGGTTTTCCCGGTAATCCGTATTTGAC (site ATCTATACTGT) | 0
58 | CTCTATACATGGACCGGTTTTCCCGGTAATCCGTATTTGAC (site CTCTATACTGT) | 2.07
59 | CTCTATACATGGACCGGTTTTCCCGGTAATCCGTATTTGAC (site GTCTATACTGT) | 0.00602
60 | CTCTATACATGGACCGGTTTTCCCGGTAATCCGTATTTGAC (site TTCTATACTGT) | 0
61 | CTCTCATCATGGACCGGTTTTCCCGGTAATCCGTATTTGCT (site CGATCATCTAG) | 0
62 | CTCTCATCATGGACCGGTTTTCCCGGTAATCCGTATTTGCT (site CTCTCATCTAG) | 2.05
63 | CTCTCCACATGGACCGGTTTTCCCGGTAATCCGTATTTGTC (site CTCTCCACTGA) | 2.77
64 | CTCTCGACATGGACCGGTTTTCCCGGTAATCCGTATTTGAC (site CTCTCGACTGT) | 1.34
65 | CTCTGCCCATGGACCGGTTTTCCCGGTAATCCGTATTTGAT (site CTCTGCCCTAT) | 0.509
66 | CTCTGGCCATGGACCGGTTTTCCCGGTAATCCGTATTTGCG (site CTCTGGCCTCG) | 0
67 | CTCTTCTCATGGACCGGTTTTCCCGGTAATCCGTATTTGCT (site CTCTTCTCTAG) | 2.6
68 | CTGAATTCATGGACCGGTTTTCCCGGTAATCCGTATTTGCC (site CTGAATTCTGG) | 1.06
69 | CTGACATCATGGACCGGTTTTCCCGGTAATCCGTATTTGAG (site CTGACATCTCT) | 1.86
70 | CTGACGACATGGACCGGTTTTCCCGGTAATCCGTATTTGCA (site CTGACGACTTG) | 1.71
71 | CTGATACCATGGACCGGTTTTCCCGGTAATCCGTATTTGTA (site CTGATACCTTA) | 0.00514
72 | CTGCAACCATGGACCGGTTTTCCCGGTAATCCGTATTTGCT (site CTGCAACCTAG) | 0.209
73 | CTGCAACCATGGACCGGTTTTCCCGGTAATCCGTATTTGCT (site CTGCCACCTAG) | 0.0268
74 | CTGCAACCATGGACCGGTTTTCCCGGTAATCCGTATTTGCT (site CTGCGACCTAG) | 0.00379
75 | CTGCAACCATGGACCGGTTTTCCCGGTAATCCGTATTTGCT (site CTGCTACCTAG) | 0
